These results are taken from the Deep4Chem optical property database.

This series in a line: solvent given as SMILES.

Consider `COc1ccc(-n2c3ccccc3c3cc(/C=C/C(=C(C#N)C#N)c4ccccc4)ccc32)cc1`, for which the emission maximum by setting is: (in C1CCOC1) 560 nm; (in CC#N) 594 nm; (in CC(C)=O) 582 nm; (in CCOC(C)=O) 550 nm; (in CO) 597 nm; (in CS(C)=O) 601 nm. The emission maximum runs as follows: (in Cc1ccccc1) 526 nm; (in ClC(Cl)Cl) 554 nm.

`CCCCCCOc1cc(C=O)c(OCCCCCC)cc1C=O` registered an emission maximum (in ClCCl) of 467 nm.

Regarding `N#Cc1ccc(-c2ccc3c(c2)c2cc(-c4ccc(C#N)cc4)ccc2c2c3nc(-c3ccc(N(c4ccccc4)c4ccccc4)cc3)n2-c2ccccc2)cc1`, the emission maximum is 449.94 nm (in C1CCOC1), 479.9 nm (in CC#N), 419.62 nm (in CCCCCC) and 439.6 nm (in CCOCC).

`CC[Si](C)(C)c1cc2ccc3cccc4ccc(c1C(=O)NC(C)(C)C)c2c34` showed an emission maximum (in ClC(Cl)Cl) of 383 nm.

As to `c1cc2ccc3ccc4cc3c2cc1CCCCCCc1ccc2ccc3ccc-4cc3c2c1`, the emission maximum (in Cc1ccccc1) is recorded as 376 nm.

`CCCCCOc1cc2oc(=O)c3c4ccc(N(c5ccc(C)cc5)c5ccc(C)cc5)cc4c4ccc5cccc6c(c1)c2c3c4c56` yielded an emission maximum (in C1CCOC1) of 605 nm.

Where the note is “in ClC(Cl)Cl”, `CCCCC1(CCCC)c2ccccc2-c2ccc(-c3c4c(nc5ccccc35)-c3cc5c(cc3CC4)-c3nc4ccccc4c(-c4ccc6c(c4)C(CCCC)(CCCC)c4ccccc4-6)c3CC5)cc21` showed an emission maximum of 385 nm.

The molecule `C(=C\c1ccc(-c2ccccc2)cc1)/c1ccc(Oc2ccc3ccccc3c2-c2c(Oc3ccc(/C=C/c4ccc(-c5ccccc5)cc4)cc3)ccc3ccccc23)cc1` showed an emission maximum (in ClCCl) of 385 nm.

For `Nc1cc2nc3cc(Cl)c(Cl)cc3nc2cc1N`, the emission maximum (in CCO) stood at 549 nm.

Consider `CC1(C)c2ccccc2N(c2ccc(-c3nnc(-c4ccc(N5c6ccccc6C(C)(C)c6ccccc65)cc4)o3)cc2)c2ccccc21`, for which the emission maximum is, setting by setting: (in Cc1ccccc1) 461 nm; (in O=P(c1ccccc1)(c1ccccc1)c1ccccc1Oc1ccccc1P(=O)(c1ccccc1)c1ccccc1) 472 nm.

In turn, `NCCc1c[nH]c2ccc(O)cc12` had an emission maximum (in CC#N) of 332 nm, an emission maximum (in CC(C)O) of 335 nm, an emission maximum (in CO) of 334 nm and an emission maximum (in O) of 337 nm.

Consider `COc1ccc(N(c2ccc(OC)cc2)c2ccc3c4cccc5c(N(c6ccc(OC)cc6)c6ccc(OC)cc6)ccc(c6cccc2c63)c54)cc1`, for which the emission maximum is 551 nm (in C1CCCCC1); 583 nm (in C1CCOC1); 598 nm (in CC#N); 574 nm (in Cc1ccccc1); 591 nm (in ClCCl).

Consider `Cc1cc(C)c(B(c2ccsc2-c2sccc2P(=O)(c2ccccc2)c2ccccc2)c2c(C)cc(C)cc2C)c(C)c1`, for which the emission maximum (in CO) amounted to 512 nm.

`O=S(=O)(c1cccc(-n2c3ccccc3c3ccccc32)c1)c1cccc(-n2c3ccccc3c3ccccc32)c1`: the emission maximum is 426 nm (in C1CCOC1); 409.97 nm (in CCCCC(CC)n1c2ccc(-n3c4ccccc4c4ccccc43)cc2c2cc(-n3c4ccccc4c4ccccc43)ccc21); 405 nm (in Cc1ccccc1); 422 nm (in ClC(Cl)Cl); 419.94 nm (in c1cc(-n2c3ccccc3c3ccccc32)cc(-n2c3ccccc3c3ccccc32)c1).

Consider `COc1cccc2cc(-c3ccc([N+](=O)[O-])cc3)c(=N)oc12`, for which the emission maximum (in C1CCOC1) was found to be 374 nm, the emission maximum (in CC#N) was found to be 366 nm, the emission maximum (in CS(C)=O) is 392 nm and the emission maximum (in ClC(Cl)Cl) came out at 380 nm.

As to `CCOC(=O)/C(C#N)=C\c1ccc2c(c1)c1ccccc1n2-c1ccc(C)cc1`, the emission maximum is reported as 461 nm (in C1CCOC1); 508 nm (in CC#N); 503 nm (in CC(C)=O); 460 nm (in CCOC(C)=O); 495 nm (in CO); 503 nm (in CS(C)=O). For the same molecule, the emission maximum was found to be 444 nm (in Cc1ccccc1) and 482 nm (in ClC(Cl)Cl).

Take `C1=C2c3cc4ccccc4cc3C3=[N+]2[B-]2(Oc4ccccc43)Oc3ccccc3-c3c4cc5ccccc5cc4c1n32` (stereo unspecified): the emission maximum (in C1CCOC1) is 832 nm.

On to `Cc1cc2nc3cc(C)c(N)cc3[n+](-c3ccccc3)c2cc1N`, for which the emission maximum is, setting by setting: (in CC(C)O) 562 nm; (in CCO) 564 nm; (in CO) 563.8 nm; (in O) 588.3 nm.

On to `CCCCCCCCCCCCN1C(=O)c2c(c3ccc4cc(-c5ccc(C#N)cc5)c(OC)cc4c3c3c2ccc2cc(-c4ccc(C#N)cc4)c(OC)cc23)C1=O`, for which, where the note is “in ClCCl”, the emission maximum is 520 nm.

The molecule `CCC1=C(C)C2=Cc3c4ccccc4c4n3[B-](c3ccc(OC)cc3)(Oc3ccccc3-4)[N+]2=C1C` (stereo unspecified) displayed an emission maximum (in CC#N) of 634 nm, an emission maximum (in CCCCCC) of 635 nm, an emission maximum (in Cc1ccccc1) of 641 nm and an emission maximum (in ClCCl) of 639 nm.

In the case of `CCN(CC)c1ccc2c(-c3ccccc3C(=O)O)c3c([o+]c2c1)/C(=C/Nc1ccccc1)CCC3`, the emission maximum is, setting by setting: (in CCO) 641 nm; (in ClC(Cl)Cl) 644 nm; (in ClCCl) 644 nm.

`CC(C)(C)c1ccc2c(c1)c1cc(C(C)(C)C)ccc1n2-c1ccc(S(=O)(=O)c2ccc(S(=O)(=O)c3ccc(-n4c5ccc(C(C)(C)C)cc5c5cc(C(C)(C)C)ccc54)cc3)cc2)cc1` came in with an emission maximum (in Cc1ccccc1) of 446 nm.

Consider `CCOC(=O)c1sc(SC)c2c(=O)[nH]nnc12`, for which the emission maximum runs as follows: (in C1CCOC1) 465 nm; (in CC#N) 478 nm; (in CCO) 492 nm; (in CN(C)C=O) 478 nm; (in CO) 499 nm; (in CS(C)=O) 491 nm.

The molecule `COc1cc2c(cc1F)c(=O)c1cc(F)c(OC)cc1n2Cc1ccccc1` showed an emission maximum (in CCO) of 416 nm.

Turning to `CCCCCCN(CCCCCC)c1ccc(C#Cc2ccc(C#Cc3ccc(-c4ccc(C#Cc5ccc(C#Cc6ccc(N(CCCCCC)CCCCCC)cc6)cc5)cc4)cc3)cc2)cc1`, the emission maximum (in Cc1ccccc1) came out at 433 nm.

The molecule `CCN1c2ccc(/C=N/Nc3ccccn3)cc2Sc2cc(-c3ccc(OC)cc3)ccc21` yielded an emission maximum (in C1CCOC1) of 491 nm, an emission maximum (in CS(C)=O) of 503 nm, an emission maximum (in Cc1ccccc1) of 484 nm and an emission maximum (in ClCCl) of 497 nm.

For `CC(C)(C)c1ccc(N(c2ccc(C(C)(C)C)cc2)c2ccc3c(N(c4ccc(C(C)(C)C)cc4)c4ccc(C(C)(C)C)cc4)cc4c5cc(N(c6ccc(C(C)(C)C)cc6)c6ccc(C(C)(C)C)cc6)ccc5c(N(c5ccc(C(C)(C)C)cc5)c5ccc(C(C)(C)C)cc5)cc4c3c2)cc1`, the emission maximum reads like this: (in CC#N) 470 nm; (in CCCCCC) 456 nm; (in ClCCl) 471 nm.

As for `C[Si]1(C)c2ccccc2-c2ccccc21`, under “in ClCCl”, the emission maximum turned out to be 359 nm.

With `CCCCCCCCCn1c(-c2cc(-c3nc4ccccc4n3CCCCCCCCC)cc(-c3nc4ccccc4n3CCCCCCCCC)c2)nc2ccccc21`, the emission maximum (in C1CCOC1) is listed as 361.1 nm.

Regarding `CN(C)c1ccc(/C=C/c2ccc(C#N)cc2)cc1`, the emission maximum reads like this: (in C1CCOC1) 499 nm; (in CC#N) 530 nm; (in CCCC#N) 522 nm; (in CCCCCC) 415 nm; (in CCCCOCCCC) 453 nm; (in CCO) 524 nm. The molecule also had an emission maximum (in CCOCC) of 475 nm.

In the case of `O=C1Nc2ccccc2/C1=C/C(=O)c1ccc(Cl)cc1`, the emission maximum runs as follows: (in C1CCCCC1) 382 nm; (in C1COCCO1) 394 nm; (in CC#N) 398 nm; (in CC(C)(C)O) 405 nm; (in CC(C)O) 404 nm; (in CCCCCC) 382 nm. Besides, the emission maximum came to 405 nm (in CCCCO); 395 nm (in CCOC(C)=O); 398 nm (in CN(C)C=O); 406 nm (in CO); 394 nm (in ClCCl); 410 nm (in O).

Take `Cc1cc(C)c(-c2nnc(-c3ccc(-n4c5ccccc5c5ccccc54)cc3)o2)c(C)c1`: the emission maximum worked out at 435 nm (in CCO) and 379 nm (in Cc1ccccc1).

As to `CC1(C)c2ccccc2N(c2ccc3c(c2)c2cc(N4c5ccccc5C(C)(C)c5ccccc54)cc4c5ccccc5n3c42)c2ccccc21`, the emission maximum was determined as 427.57 nm (in C1CCCCC1), 481.94 nm (in C1CCOC1) and 449 nm (in Cc1ccccc1).

Under “in ClCCl”, `O=P1(c2ccccc2)c2cccc3ccc4ccc1n4c23` (stereo unspecified) gave an emission maximum of 496 nm.

`CCCCCCN1C(=O)c2cccc3c(-c4ccc(C)s4)ccc(c23)C1=O` returned an emission maximum (in ClC(Cl)Cl) of 482 nm.

For the setting “in C1COCCO1”, `COC(=O)c1ccc(/C=C2\N=C(c3ccc([N+](=O)[O-])cc3)NC2=O)cc1` displayed an emission maximum of 510 nm.

On to `O=Cc1ccc(-c2ccc(C3=CCC(c4ccccc4)CC3)s2)s1` (stereo unspecified), for which the emission maximum runs as follows: (in C1CCOC1) 446 nm; (in CC#N) 483 nm; (in CCCCCC) 443 nm; (in CCO) 498 nm; (in OCCOCCO) 506 nm; (in c1ccncc1) 481 nm.

The molecule `C#CCOc1ccc(/C=C/C2=[N+]3C(=C(c4ccc(N5CCCCC5)cc4)c4c(C)cc(C)n4[B-]3(F)F)C(C)=C2)cc1` had an emission maximum (in CO) of 582 nm.

On to `F[B-]1(F)N2C=CN=CC2=[N+]2[N+]1=Cc1c(-c3ccccc3)cc(-c3ccccc3)n1[B-]2(F)F`, for which the emission maximum (in ClCCl) is given as 560 nm.

For the setting “in CCO”, `Nc1cc2nc3cc(F)c(F)cc3nc2cc1N` registered an emission maximum of 537 nm.

`O=S(=O)([O-])c1ccc([O-])c2ccccc12` displayed an emission maximum (in O) of 435 nm.
